Source: ChEMBL document CHEMBL5584309, “Discovery of Novel Mcl-1 Inhibitors with a 3-Substituted-1H-indole-1-yl Moiety Binding to the P1-P3 Pockets to Induce Apoptosis in Acute Myeloid Leukemia Cells” (J Med Chem, 2024)

What was measured:
HL-60 = assay: Antiproliferative activity against human HL-60 cells assessed as growth inhibition measured after 72 hrs by CCK-8 assay; format: functional, cell-based; details: HL-60, 72 h
[1] = biological target: Induced myeloid leukemia cell differentiation protein Mcl-1 (Homo sapiens, UniProt Q07820); assay: Binding affinity to Mcl-1 (unknown origin) pre-incubated for 30 mins followed by addition FAM-peptide further incubated for 20 mins by fluorescence polarization-based binding assay
Chain of Induced myeloid leukemia cell differentiation protein Mcl-1 (Q07820 whole entry): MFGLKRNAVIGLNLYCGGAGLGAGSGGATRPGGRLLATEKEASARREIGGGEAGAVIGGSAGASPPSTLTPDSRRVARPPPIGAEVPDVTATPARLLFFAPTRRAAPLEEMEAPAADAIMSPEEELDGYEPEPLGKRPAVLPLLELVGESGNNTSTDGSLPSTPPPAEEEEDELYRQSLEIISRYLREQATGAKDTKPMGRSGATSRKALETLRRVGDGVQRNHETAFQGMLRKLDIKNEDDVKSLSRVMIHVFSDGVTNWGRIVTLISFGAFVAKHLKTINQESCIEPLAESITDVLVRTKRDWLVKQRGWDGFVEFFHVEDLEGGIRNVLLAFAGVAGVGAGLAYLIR

[2] = biological target: Apoptosis regulator Bcl-2 (Homo sapiens, UniProt P10415); assay: Binding affinity to Bcl-2 (unknown origin) pre-incubated for 30 mins followed by addition FAM-peptide further incubated for 20 mins by fluorescence polarization-based binding assay
Chain of Apoptosis regulator Bcl-2 (P10415 whole entry): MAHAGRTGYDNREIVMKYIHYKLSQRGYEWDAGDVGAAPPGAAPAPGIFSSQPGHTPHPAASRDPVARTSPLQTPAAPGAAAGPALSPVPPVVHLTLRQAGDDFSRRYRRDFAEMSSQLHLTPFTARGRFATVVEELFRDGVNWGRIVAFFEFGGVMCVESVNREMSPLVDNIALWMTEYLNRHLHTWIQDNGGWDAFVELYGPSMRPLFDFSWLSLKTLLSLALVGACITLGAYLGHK

Bcl-2-related protein A1 = biological target: T1, Bcl-2-related protein A1 (Homo sapiens, UniProt Q16548); assay: Binding affinity to Bfl-1 (unknown origin) pre-incubated for 30 mins followed by addition FAM-peptide further incubated for 20 mins by fluorescence polarization-based binding assay
T1 sequence (Q16548 whole entry): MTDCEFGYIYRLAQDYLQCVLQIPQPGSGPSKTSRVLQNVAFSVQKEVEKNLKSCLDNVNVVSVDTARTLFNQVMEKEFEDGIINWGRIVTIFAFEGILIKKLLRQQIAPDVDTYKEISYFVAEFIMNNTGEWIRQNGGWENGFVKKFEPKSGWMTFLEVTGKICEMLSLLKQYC

Bcl-2-like protein 1 = Bcl-2-like protein 1 (Homo sapiens, UniProt Q07817); assay: Binding affinity to Bcl-xL (unknown origin) pre-incubated for 30 mins followed by addition FAM-peptide further incubated for 20 mins by fluorescence polarization-based binding assay
Chain of Bcl-2-like protein 1 (Q07817 whole entry): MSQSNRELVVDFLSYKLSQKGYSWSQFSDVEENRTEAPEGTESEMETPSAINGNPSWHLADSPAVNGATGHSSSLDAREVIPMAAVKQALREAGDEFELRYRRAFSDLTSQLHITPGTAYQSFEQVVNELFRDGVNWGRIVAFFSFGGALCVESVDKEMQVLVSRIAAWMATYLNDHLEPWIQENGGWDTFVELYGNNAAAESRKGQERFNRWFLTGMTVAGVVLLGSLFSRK

| Structure (SMILES) | IC50 (HL-60) | Ki ([1]; read-out: Ki) | IC50 [2] | IC50 (Bcl-2-related protein A1) | IC50 (Bcl-2-like protein 1) | Ki [1] |
| --- | --- | --- | --- | --- | --- | --- |
| Cc1cc(OCCCc2c(C(=O)O)n(CCN3CCOCC3)c3c(-c4ccccc4Cn4cc(CCNC(=O)c5ccccc5Br)c5ccccc54)cccc23)cc(C)c1Cl | 16800 nM | 68 nM |  |  |  |  |
| COc1ccc(OCc2c(-c3cccc4c(CCCOc5cc(C)c(Cl)c(C)c5)c(C(=O)O)[nH]c34)c(C(=O)NCC3CCOCC3)nn2C)cc1 | 35000 nM | 490 nM |  |  |  |  |
| Cc1cc(OCCCc2c(C(=O)O)n(CCN3CCOCC3)c3c(-c4ccccc4Cn4cc(CCNC(=O)c5ccc(Br)cc5)c5ccccc54)cccc23)cc(C)c1Cl | 30700 nM | 51 nM |  |  |  |  |
| Cc1cc(OCCCc2c(C(=O)O)n(CCN3CCOCC3)c3c(-c4ccccc4Cn4cc(CCNC(=O)c5ccncn5)c5ccccc54)cccc23)cc(C)c1Cl | 28400 nM | 120 nM |  |  |  |  |
| Cc1cc(OCCCc2c(C(=O)O)[nH]c3ccccc23)cc(C)c1Cl | > 50000 nM |  |  |  |  |  |
| Cc1cc(OCCCc2c(C(=O)O)n(CCN3CCOCC3)c3c(-c4ccccc4Cn4cc(CCNC(=O)c5cccc(Br)c5)c5ccccc54)cccc23)cc(C)c1Cl | 12300 nM | 87 nM |  |  |  |  |
| Cc1cc(OCCCc2c(C(=O)O)[nH]c3c(-c4c(C(=O)NCC5CC5)nn(C)c4Cn4cc(CCNC(=O)OC(C)(C)C)c5ccccc54)cccc23)cc(C)c1Cl | 19300 nM | 150 nM |  |  |  |  |
| COc1cccc2c1ccn2Cc1ccccc1-c1cccc2c(CCCOc3cc(C)c(Cl)c(C)c3)c(C(=O)O)n(CCN3CCOCC3)c12 | 14100 nM | 95 nM |  |  |  |  |
| COc1ccc(CN(C)C(=O)c2nn(C)c(COc3ccc(OC)cc3)c2-c2cccc3c(CCCOc4cc(C)c(Cl)c(C)c4)c(C(=O)O)[nH]c23)cc1 | 28000 nM | 530 nM |  |  |  |  |
| Cc1cc(OCCCc2c(C(=O)O)n(CCN3CCOCC3)c3c(-c4ccccc4Cn4cc(CCNC(=O)CC(F)(F)F)c5ccccc54)cccc23)cc(C)c1Cl | 18300 nM | 60 nM |  |  |  |  |
| COc1ccc(OCc2c(-c3cccc4c(CCCOc5cc(C)c(Cl)c(C)c5)c(C(=O)O)[nH]c34)c(C(=O)Nc3ccccc3F)nn2C)cc1 | 28300 nM | 390 nM |  |  |  |  |
| COc1ccc(OCc2c(-c3cccc4c(CCCOc5cc(C)c(Cl)c(C)c5)c(C(=O)O)[nH]c34)c(C(=O)NC3CCOCC3)nn2C)cc1 | 21100 nM | 840 nM |  |  |  |  |
| Cc1cc(OCCCc2c(C(=O)O)n(CCN3CCOCC3)c3c(-c4ccccc4Cn4cc(CCNS(=O)(=O)c5ccc(F)cc5)c5ccccc54)cccc23)cc(C)c1Cl | 8910 nM | 48 nM |  |  |  |  |
| COc1ccc(OCc2c(-c3cccc4c(CCCOc5cc(C)c(Cl)c(C)c5)c(C(=O)O)[nH]c34)c(C(=O)NCC3CC3)nn2C)cc1 | 30500 nM | 220 nM |  |  |  |  |
| Cc1cc(OCCCc2c(C(=O)O)n(CCN3CCOCC3)c3c(-c4ccccc4Cn4cc(CCNC(=O)c5ccccc5C(F)(F)F)c5ccccc54)cccc23)cc(C)c1Cl | 14300 nM | 56 nM |  |  |  |  |
| CC(C)=CCC[C@]1(C)C=Cc2c(O)c3c(c(CC=C(C)C)c2O1)O[C@]12C(=C[C@@H]4C[C@H]1C(C)(C)O[C@@]2(C/C=C(/C)C(=O)O)C4=O)C3=O [GAMBOGIC ACID] |  |  | 160 nM | 500 nM | 500 nM |  |
| COc1ccc(OCc2c(-c3cccc4c(CCCOc5cc(C)c(Cl)c(C)c5)c(C(=O)O)[nH]c34)c(C(=O)N(C)CCNC(=O)OC(C)(C)C)nn2C)cc1 | > 50000 nM | 260 nM |  |  |  |  |
| Cc1cc(OCCCc2c(C(=O)O)[nH]c3c(-c4c(C(=O)NCC5CC5)nn(C)c4COc4ccccc4)cccc23)cc(C)c1Cl | 47800 nM | 340 nM |  |  |  |  |
| Cc1cc(OCCCc2c(C(=O)O)n(CCN3CCOCC3)c3c(-c4ccccc4Cn4cc(CCNCC(N)=O)c5ccccc54)cccc23)cc(C)c1Cl | > 50000 nM | 1200 nM |  |  |  |  |
| Cc1cc(OCCCc2c(C(=O)O)n(CCN3CCOCC3)c3c(-c4ccccc4Cn4ccc5ccccc54)cccc23)cc(C)c1Cl | 21200 nM | 150 nM |  |  |  |  |
| Cc1cc(OCCCc2c(C(=O)O)n(CCN3CCOCC3)c3c(-c4ccccc4Cn4cc(C)c5ccccc54)cccc23)cc(C)c1Cl | 15600 nM | 89 nM |  |  |  |  |

| Structure (SMILES) | IC50 (HL-60) | Ki ([1]; read-out: Ki) | IC50 [2] | IC50 (Bcl-2-related protein A1) | IC50 (Bcl-2-like protein 1) | Ki [1] |
| --- | --- | --- | --- | --- | --- | --- |
| Cc1cc(OCCCc2c(C(=O)O)n(CCN3CCOCC3)c3c(-c4ccccc4Cn4cc(CCNC(=O)c5ccoc5)c5ccccc54)cccc23)cc(C)c1Cl | 29900 nM | 58 nM |  |  |  |  |
| Cc1ccc2c(ccn2Cc2ccccc2-c2cccc3c(CCCOc4cc(C)c(Cl)c(C)c4)c(C(=O)O)n(CCN4CCOCC4)c23)c1 | 39100 nM | 160 nM |  |  |  |  |
| Cc1cc(OCCCc2c(C(=O)O)n(CCN3CCOCC3)c3c(-c4ccccc4Cn4ccc5c(C)cccc54)cccc23)cc(C)c1Cl | 15100 nM | 120 nM |  |  |  |  |
| Cc1cc(OCCCc2c(C(=O)O)n(CCN3CCOCC3)c3c(-c4ccccc4Cn4cc(CCNC(=O)c5c(C)cccc5F)c5ccccc54)cccc23)cc(C)c1Cl | 14200 nM | 43 nM |  |  |  |  |
| Cc1cc(OCCCc2c(C(=O)O)[nH]c3c(-c4c(C(=O)NCC5CC5)nn(C)c4Cn4cc(C)c5ccccc54)cccc23)cc(C)c1Cl | 10500 nM | 100 nM |  |  |  |  |
| Cc1cc(OCCCc2c(C(=O)O)[nH]c3c(-c4ccccc4CN(C)c4ccccc4)cccc23)cc(C)c1Cl | 31900 nM | 650 nM |  |  |  |  |
| COc1cccc(OCc2c(-c3cccc4c(CCCOc5cc(C)c(Cl)c(C)c5)c(C(=O)O)[nH]c34)c(C(=O)NCC3CC3)nn2C)c1 | > 50000 nM | 370 nM |  |  |  |  |
| Cc1cc(OCCCc2c(C(=O)O)[nH]c3c(-c4c(C(=O)NCC5CC5)nn(C)c4COc4ccc(C=O)cc4)cccc23)cc(C)c1Cl | 34900 nM | 180 nM |  |  |  |  |
| Cc1cc(OCCCc2c(C(=O)O)n(CCN3CCOCC3)c3c(-c4ccccc4Cn4cc(CCNC(=O)c5ccc(OC(F)(F)F)cc5)c5ccccc54)cccc23)cc(C)c1Cl | 7920 nM | 29 nM | > 100000 nM | > 10000 nM | > 100000 nM |  |
| Cc1ccc2c(ccn2Cc2c(-c3cccc4c(CCCOc5cc(C)c(Cl)c(C)c5)c(C(=O)O)[nH]c34)c(C(=O)NCC3CC3)nn2C)c1 | 8820 nM | 150 nM |  |  |  |  |
| COc1ccccc1OCc1c(-c2cccc3c(CCCOc4cc(C)c(Cl)c(C)c4)c(C(=O)O)[nH]c23)c(C(=O)NCC2CC2)nn1C | 28800 nM | 240 nM |  |  |  |  |
| Cc1cc(OCCCc2c(C(=O)O)n(CCN3CCOCC3)c3c(-c4ccccc4Cn4cc(CCNC(=O)c5ccc(Cl)cc5)c5ccccc54)cccc23)cc(C)c1Cl | 7580 nM | 45 nM | > 100000 nM | > 10000 nM | > 100000 nM |  |
| Cc1cc(OCCCc2c(C(=O)O)n(CCN3CCOCC3)c3c(-c4ccccc4Cn4cc(CCNC(=O)c5ccc(C=O)cc5)c5ccccc54)cccc23)cc(C)c1Cl | 35100 nM | 27 nM |  |  |  |  |
| Cc1ccccc1C(=O)NCCc1cn(Cc2ccccc2-c2cccc3c(CCCOc4cc(C)c(Cl)c(C)c4)c(C(=O)O)n(CCN4CCOCC4)c23)c2ccccc12 | 10100 nM | 59 nM |  |  |  |  |
| COc1ccc2c(ccn2Cc2ccccc2-c2cccc3c(CCCOc4cc(C)c(Cl)c(C)c4)c(C(=O)O)n(CCN4CCOCC4)c23)c1 | 16100 nM | 150 nM |  |  |  |  |
| Cc1cc(OCCCc2c(C(=O)O)n(CCN3CCOCC3)c3c(-c4ccccc4Cn4cc(CCNC(=O)c5ccncc5F)c5ccccc54)cccc23)cc(C)c1Cl | 12600 nM | 55 nM |  |  |  |  |
| Cc1cc(OCCCc2c(C(=O)O)[nH]c3c(-c4ccccc4Cn4ccc5ccccc54)cccc23)cc(C)c1Cl | 44100 nM | 240 nM |  |  |  |  |
| Cc1cc(OCCCc2c(C(=O)O)n(CCN3CCOCC3)c3c(-c4ccccc4Cn4cc(CCNC(=O)CCC(F)(F)F)c5ccccc54)cccc23)cc(C)c1Cl | 12800 nM | 98 nM |  |  |  |  |
| Cc1cc(OCCCc2c(C(=O)O)[nH]c3c(-c4c(C(=O)NCC5CC5)nn(C)c4COc4ccc(OC(F)(F)F)cc4)cccc23)cc(C)c1Cl | 32200 nM | 260 nM |  |  |  |  |
| C=CC(=O)NCCc1cn(Cc2ccccc2-c2cccc3c(CCCOc4cc(C)c(Cl)c(C)c4)c(C(=O)O)n(CCN4CCOCC4)c23)c2ccccc12 | 31600 nM | 190 nM |  |  |  |  |
| Cc1cc(OCCCc2c(C(=O)O)n(CCN3CCOCC3)c3c(-c4ccccc4Cn4cc(CCNC(=O)/C=C/c5ccc(Cl)c(Cl)c5)c5ccccc54)cccc23)cc(C)c1Cl | > 50000 nM |  |  |  |  | Not Active |
